The source made the active and inactive calls. The rule behind the calls is not given here.
What was measured:
[1] = Inhibition of lipid A-mediated TLR4 activation in HEK-Blue-4 cells assessed as inhibition of alkaline phosphatase activity by spectrophotometry; type: cell-based
[2] = Inhibition of lipid A-induced TLR4 activation in HEK-Blue-4 cells assessed as inhibition of alkaline phosphatase activity at 10 uM by spectrophotometry; type: cell-based
[3] = biological target: Intestinal-type alkaline phosphatase (Bos taurus) (UniProt P19111); test: Inhibition of calf recombinant intestinal alkaline phosphatase at 10 uM
[4] = Cytotoxicity against HEK-Blue-4 cells assessed as effect on cell viability by Cell-Titre Blue assay; type: cell-based; conditions: human
Mus musculus [5] = test: Antisepsis activity in LPS-induced ip dosed C57BL/6J mouse lethal endotoxin shock model assessed as survival after 4 days administered 30 before LPS challenge; type: functional
[6] = biological target: Intestinal-type alkaline phosphatase (Homo sapiens) (UniProt P09923); test: Inhibition of intestinal alkaline phosphatase in lipid A-stimulated HEK-Blue-4 cells at 10 uM
[7] = Cytotoxicity against HEK-Blue-4 cells assessed as diminution of cell viability by Cell-Titre Blue assay; type: cell-based; conditions: human
Mus musculus [8] = test: Antisepsis activity in LPS-induced C57BL/6J mouse lethal endotoxin shock model assessed as survival after 4 days at 10 mg/kg, ip administered 30 before LPS challenge; type: functional; conditions: for survival at 10 mg/kg: 96 h, route intraperitoneal
Homo sapiens = species: Homo sapiens; test: Inhibition of TNF-alpha-induced alkaline phosphatase activity in HEK-Blue-4 cells at 10 uM by spectrophotometry; type: functional, cell-based
Mus musculus [9] = test: Antisepsis activity in LPS-induced C57BL/6J mouse lethal endotoxin shock model assessed as survival after 4 days at 3 mg/kg, ip administered 30 before LPS challenge; type: functional; conditions: 96 h, route intraperitoneal

Chain of Intestinal-type alkaline phosphatase (Homo sapiens) (P09923 20-503 limits assumed): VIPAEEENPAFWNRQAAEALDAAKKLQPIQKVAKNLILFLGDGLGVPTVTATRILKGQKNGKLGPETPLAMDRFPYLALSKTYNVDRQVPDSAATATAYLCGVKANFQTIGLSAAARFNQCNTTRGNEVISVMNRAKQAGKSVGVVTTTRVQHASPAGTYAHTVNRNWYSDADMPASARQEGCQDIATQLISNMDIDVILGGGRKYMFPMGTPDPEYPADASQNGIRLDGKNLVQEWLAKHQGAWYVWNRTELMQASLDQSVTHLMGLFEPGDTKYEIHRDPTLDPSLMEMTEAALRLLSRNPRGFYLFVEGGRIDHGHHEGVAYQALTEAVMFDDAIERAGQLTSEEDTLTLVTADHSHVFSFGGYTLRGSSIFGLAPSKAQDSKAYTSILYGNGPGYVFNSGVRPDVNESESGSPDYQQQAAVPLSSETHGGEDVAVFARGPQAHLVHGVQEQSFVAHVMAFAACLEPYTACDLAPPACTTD
Chain of Intestinal-type alkaline phosphatase (Bos taurus) (P19111 20-506 limits assumed): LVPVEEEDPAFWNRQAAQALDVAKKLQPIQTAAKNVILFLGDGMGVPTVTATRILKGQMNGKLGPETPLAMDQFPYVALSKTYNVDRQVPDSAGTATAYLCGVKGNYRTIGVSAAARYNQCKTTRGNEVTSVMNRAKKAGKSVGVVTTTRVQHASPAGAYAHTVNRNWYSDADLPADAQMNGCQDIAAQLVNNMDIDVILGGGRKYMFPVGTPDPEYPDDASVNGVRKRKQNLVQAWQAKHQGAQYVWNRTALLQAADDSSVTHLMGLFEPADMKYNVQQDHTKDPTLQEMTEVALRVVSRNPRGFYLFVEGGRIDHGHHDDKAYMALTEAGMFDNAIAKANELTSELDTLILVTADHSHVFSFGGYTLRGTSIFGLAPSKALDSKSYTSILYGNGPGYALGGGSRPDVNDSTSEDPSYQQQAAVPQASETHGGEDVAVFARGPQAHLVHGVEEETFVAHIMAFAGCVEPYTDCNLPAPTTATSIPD

Row | SMILES | IC50 [1] [µM] | Activity [2] | Activity [3] | Activity [4] | Activity [6] | Activity (Homo sapiens) | also measured
1 | CCCCCCCCCCCCCCO[C@H]1[C@@H](OC)O[C@H](CNC(=O)C2CCCN2)[C@@H](O)[C@@H]1OCCCCCCCCCCCCCC (some centres not stated) | 5.87 | Dose-dependent effect | inactive | Non-toxic | – | – | –
2 | CCOC(=O)C1=CCCC[C@H]1S(=O)(=O)Nc1ccc(F)cc1Cl [RESATORVID] | – | – | – | – | – | – | ED50 (Mus musculus [5]; 96 h): 0.3 mg/kg
3 | CCCCCCCCCCCCCCOc1ccc(C[N+](C)(C)C2CCCC2)cc1OCCCCCCCCCCCCCC.[I-] | 1.68 | Dose-dependent effect | inactive | – | inactive | inactive | Activity [7]: 13%; survival at 10 mg/kg (Mus musculus [8]): 67%
4 | CCCCCCCCCCCCCCO[C@H]1[C@@H](OC)O[C@H](CN)[C@@H](O)[C@@H]1OCCCCCCCCCCCCCC | 5.49 | Dose-dependent effect | inactive | Non-toxic | inactive | inactive | Activity (Mus musculus [8]): Active; survival at 3 mg/kg (Mus musculus [9]): 100%
5 | CCCCCCCCCCCCCCO[C@H]1[C@@H](OC)O[C@H](CNC2CCCC2)[C@@H](O)[C@@H]1OCCCCCCCCCCCCCC | > 10 | – | – | – | – | – | inhibition [2]: 23%; Activity (Mus musculus [5]): inactive
6 | CCCCCCCCCCCCCCO[C@H]1[C@@H](OC)O[C@H](COC2CCCC2)[C@@H](O)[C@@H]1OCCCCCCCCCCCCCC | > 10 | – | – | – | – | – | –
7 | CCCCCCCCCCCCCCO[C@H]1[C@@H](OC)O[C@H](C[N+](C)(C)C2CCCC2)[C@@H](O)[C@@H]1OCCCCCCCCCCCCCC.[I-] | 5.01 | Dose-dependent effect | inactive | Non-toxic | inactive | inactive | survival at 10 mg/kg (Mus musculus [8]): 25%
8 | CCCCCCCCCCCCCCO[C@H]1[C@@H](OC)O[C@H](CNOC)[C@@H](O)[C@@H]1OCCCCCCCCCCCCCC | > 10 | – | – | – | – | – | –

Source: ChEMBL document CHEMBL1140928, “Glycolipids and benzylammonium lipids as novel antisepsis agents: synthesis and biological characterization” (J Med Chem, 2009)
